Measured values published in patent US9708312B2, “Dihydropyrimidinoisoquinolinones and pharmaceutical compositions thereof for the treatment of inflammatory disorders (GPR84 antagonists)” (GALAPAGOS NV, priority 2012, dated 2017).
Each block holds one molecule with its values, some of them ahead of it.

Columns and labels:
[1] = tested on: RAW264.7 murine macrophage-like cells; details: RAW264.7 cells stimulated with LPS; cited from earlier work
GPR84 [2] = target: T1, GPR84 (Homo sapiens, UniProt Q9NQS5); details: literature reports; cited from earlier work
T1 construct: expressed in transfected cells
T1 sequence (Q9NQS5 whole entry): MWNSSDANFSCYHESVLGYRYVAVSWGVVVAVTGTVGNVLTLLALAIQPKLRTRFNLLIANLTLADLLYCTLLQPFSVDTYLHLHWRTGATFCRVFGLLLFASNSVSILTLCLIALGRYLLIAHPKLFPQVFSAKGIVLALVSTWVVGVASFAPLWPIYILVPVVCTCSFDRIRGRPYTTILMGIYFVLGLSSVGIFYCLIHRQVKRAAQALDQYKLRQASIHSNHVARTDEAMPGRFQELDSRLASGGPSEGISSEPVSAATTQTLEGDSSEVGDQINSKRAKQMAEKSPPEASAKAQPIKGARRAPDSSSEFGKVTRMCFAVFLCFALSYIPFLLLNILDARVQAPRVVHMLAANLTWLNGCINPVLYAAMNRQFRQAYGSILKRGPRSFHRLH

GPR84 [3] = target: T1, GPR84; experiment: GPR84 [35S]GTPγS binding assay, Tris buffer (alternative); assay type: biochemical; details: 3,3′ di indolylmethane at EC80, membranes from stable cell line over expressing GPR84, read-out: Alternative GPR84 assay GTPγS IC50 (GPR84-2)
Experimental: 1.1. Cell Based Assay: GTp-γ S Binding Assay.
The following assay can be used for determination of GPR84 activation. The [^35S]GTPγS binding assay measures the level of G protein activation following agonist occupation of a GPCR, by determining the binding of the non-hydrolysable analog [^35S]GTPγS to Gα subunits.
Alternatively, the assay is performed in a 96 well plate where the following reagents are added. First 50 μL compound is added into the assay plate, followed by addition of 20 μL 3,3′ di indolylmethane at EC80 concentration (concentration which gives 80% of the activity of GPR84). In a last step, 30 μL of a mixture consisting of membranes-GTPγS-SpA beads is added [mixture consists of 20 μg/well membranes derived from stable cell line over expressing GPR84 (membranes are pre-incubated with 0.1 μM GDP for 15 min at 4° C.), 0.1 nM [^35S]GTPγS (Perkin Elmer, NEG030) and 0.5 mg/well PVT-WGA SpA beads (Perkin Elmer, RPNQ0001)]. All components are diluted in assay buffer containing 20 mM Tris pH 7.5; 5 mM MgCl2; 250 mM NaCl; 0.05% BSA; 75 ug/mL saponin Reactions are incubated for 90 min at room temperature followed by centrifugation at 2000 rpm during 15 min. Plates are read on a Topcount reader (Perkin Elmer) immediately after centrifugation (readout time, 1 min/well).

human neutrophils = experiment: Human neutrophil migration assay (embelin-induced chemotaxis); assay type: cell-based; details: Neutrophil; neutrophils from human buffy coats; embelin at EC80
Method in brief: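 Neutrophils freshly isolated from human buffy coats were preincubated with compound for 30 min at 37 °C. They then migrated 1 h at 37 °C through 5.0 μm transwell membranes toward embelin at EC80, with compound present in both compartments. Migrated cells in the receiver well were quantified by ATPlite luminescence.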

SMILES: CCCCCCCCCCCC(=O)O [lauric acid]
secretion of interleukin-12 p40 subunit (IL-12 p40) [1]: dose dependently increased

SMILES: CCCCCCCCCC(=O)O [capric acid]
secretion of interleukin-12 p40 subunit (IL-12 p40) [1]: dose dependently increased

SMILES: CCCCCCCCNc1cc(=O)[nH]c(=O)[nH]1 [6-n-octylaminouracil]
GPR84 agonist activity (GPR84 [2]): some GPR84 agonist activity

SMILES: c1ccc2c(Cc3c[nH]c4ccccc34)c[nH]c2c1 [3,3′-diindolylmethane]
GPR84 agonist activity (GPR84 [2]): some GPR84 agonist activity

SMILES: CCCCCCCCCCC(=O)O [undecanoic acid]
secretion of interleukin-12 p40 subunit (IL-12 p40) [1]: dose dependently increased

IC50 (GPR84 [3]): 100 to 500 nM
IC50 (human neutrophils): 0.01 to 100 nM
SMILES: O=c1nc(OCC2COc3ncccc3O2)cc2n1CCc1cc(C#Cc3cccnc3)ccc1-2 (stereo not drawn) [compound 131, 2-(2,3-dihydro-[1,4]dioxino[2,3-b]pyridin-2-ylmethoxy)-9-pyridin-3-ylethynyl-6,7-dihydro-pyrimido[6,1-a]isoquinolin-4-one]

IC50 (GPR84 [3]): 0.01 to 100 nM
IC50 (human neutrophils): 0.01 to 100 nM
SMILES: O=c1nc(OCC2COc3ncccc3O2)cc2n1CCc1cc(C#CC3(O)CCCC3)ccc1-2 (stereo not drawn) [compound 142, 2-(2,3-Dihydro-[1,4]dioxino[2,3-b]pyridin-2-ylmethoxy)-9-(1-hydroxy-cyclopentylethynyl)-6,7-dihydro-pyrimido[6,1-a]isoquinolin-4-one]
